Results on 29 compounds are retold here after patent publication US10266526B2, “Substituted 1,2,3-triazoles as SMYD inhibitors for treating cancer” (EPIZYME, INC., priority 2014, dated 2019).

The target of this experiment is SMYD3 (Homo sapiens (Human), UniProt Q9H7B4). The experiment can be described thus: SMYD3 biochemical assay (SMYD3 enzyme assay on MEKK2 protein substrate, 3H-SAM scintillation proximity assay). The text has this:
S-adenosylmethionine (SAM), S-adenosylhomocysteine (SAH), Tris, Tween20, dimethylsulfoxide (DMSO), bovine skin gelatin (BSG), and Tris(2-carboxyethyl)phosphine hydrochloride solution (TCEP) were purchased from Sigma-Aldrich at the highest level of purity possible. ^3H-SAM was purchase from American Radiolabeled Chemicals with a specific activity of 80 Ci/mmol. 384-well opaque white OptiPlates and SPA beads (Perkin Elmer, catalog # RPNQ0013) were purchased from PerkinElmer.
N-terminally GST-tagged MEKK2 (MAP3K2) protein corresponding to reference sequence AAF63496.3 was purchased from Life Technologies (catalog # PV4010). This protein was expressed in High Five insect cells and purified to >85% purity. Protein identity was confirmed by MS/MS analysis after proteolytic digestion. The protein sequence used was:
Full-length human SMYD3 isoform 1 (BAB86333) was inserted into a modified pET21b plasmid containing a His6 tag and TEV and SUMO cleavage sites.
E. coli (BL21 codonplus RIL strain, Stratagene) were transformed with plasmid pEPZ553 by mixing competent cells and plasmid DNA and incubating on ice for 30 minutes followed by heat shock at 42° C. for 1 minute and cooling on ice for 2 minutes. Transformed cells were grown and selected on LB agar with 100 μg/mL ampicillin and 17 μg/mL chloramphenicol at 37° C. overnight. A single clone was used to inoculate 200 mL of LB medium with 100 μg/mL ampicillin and 17 μg/mL chloramphenicol and incubated at 37° C. on an orbital shaker at 180 rpm. Once in log growth, the culture was diluted 1:100 into 2 L of LB medium and grown until OD600 was about 0.3 after which the culture was incubated at 15° C. and 160 rpm. Once OD600 reached about 0.4, IPTG was added to a final concentration of 0.1 mM and the cells were grown overnight at 15° C. and 160 rpm. Cells were harvested by centrifugation at 8000 rpm, for 4 minutes at 4° C. and stored at −80° C. for purification.
The column was washed with Buffer B (Buffer A plus 20 mM imidazole) and His-tagged SMYD3 was eluted with Buffer C (Buffer A plus 300 mM imidazole). The His tag, TEV and SUMO cleavage sites were removed generating native SMYD3 by addition of ULP1 protein at a ratio of 1:200 (ULP1:SMYD3). Imidazole was removed by dialysis overnight in Buffer A. The dialyzed solution was applied to a second Nickel column and the native SMYD3 protein was collected from the column flow-through. The flow-through was dialyzed in Buffer D (25 mM Tris, 5% glycerol, 5 mM β-mercaptoethanol, 50 mM NaCl, pH7.8) and ULP1 was removed using a Q sepharose fast flow column.
General Procedure for SMYD3 Enzyme Assays on MEKK2 Protein Substrate
The assays were all performed in a buffer consisting of 25 mM Tris-Cl pH 8.0, 1 mM TCEP, 0.005% BSG, and 0.005% Tween 20, prepared on the day of use. […] DMSO (1 ul) was added to Columns 11, 12, 23, 24, rows A-H for the maximum signal control and 1 ul of SAH, a known product and inhibitor of SMYD3, was added to columns 11, 12, 23, 24, rows I-P for the minimum signal control. A cocktail (40 ul) containing the SMYD3 enzyme was added by Multidrop Combi (Thermo-Fisher). The compounds were allowed to incubate with SMYD3 for 30 min at room temperature, then a cocktail (10 ul) containing SAM and MEKK2 was added to initiate the reaction (final volume=51 ul). […] The assays were stopped by the addition of non-radiolabeled SAM (10 ul) to a final concentration of 100 uM, which dilutes the ^3H-SAM to a level where its incorporation into MEKK2 is no longer detectable. Radiolabeled MEKK2 was detected using a scintillation proximity assay (SPA). 10 uL of a 10 mg/mL solution of SPA beads in 0.5 M citric acid was added and the plates centrifuged at 600 rpm for 1 min to precipitate the radiolabeled MEKK2 onto the SPA beads.

Where [1] appears, read: Table 1A, average of n = 1 to n = 50, read-out: SMYD3 Biochem IC50.
The mark [2] stands for this setting: read-out: SMYD3 Biochem IC50 (μM)*.

Structures are written as SMILES. Structures can show the parent of a compound that is named as a salt. Where two headings read alike, the source gives them in different places.

Sequence of SMYD3 (Q9H7B4 whole entry): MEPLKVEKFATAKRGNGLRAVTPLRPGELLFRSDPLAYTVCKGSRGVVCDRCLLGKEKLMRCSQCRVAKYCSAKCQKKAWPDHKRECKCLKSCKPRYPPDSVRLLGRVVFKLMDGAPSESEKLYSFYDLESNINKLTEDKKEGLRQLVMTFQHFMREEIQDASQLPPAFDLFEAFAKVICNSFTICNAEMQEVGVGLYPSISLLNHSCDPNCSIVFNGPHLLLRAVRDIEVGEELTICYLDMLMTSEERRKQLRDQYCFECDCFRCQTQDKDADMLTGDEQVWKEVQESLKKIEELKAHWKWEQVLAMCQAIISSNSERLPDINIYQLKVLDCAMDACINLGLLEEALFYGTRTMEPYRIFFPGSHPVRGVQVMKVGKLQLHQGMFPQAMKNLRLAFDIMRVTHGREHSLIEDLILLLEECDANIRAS

Consider `C[C@@H]1C[C@@H](NC(=O)c2ccccc2)CCN1C(=O)C1CCC(N)CC1` (mixture of isomers) [compound 557, (±)-trans-N-(1-(4-aminocyclohexane-1-carbonyl)-2-methylpiperidin-4-yl)benzamide], for which the IC50 under setting [1] is over 10 µM. Regarding `C[C@@H]1C[C@H](NC(=O)c2ccccc2)CCN1C(=O)C1CCC(N)CC1` (mixture of isomers) [compound 558, (±)-cis-N-(1-(4-aminocyclohexane-1-carbonyl)-2-methylpiperidin-4-yl)benzamide], the IC50 under setting [1] was over 10 µM. Same read-out and setting: for `C[C@@H]1C[C@@H](NC(=O)c2ccccc2)CCN1S(=O)(=O)CCCN` (racemic) [compound 563, (±)-trans-N-(1-((3-aminopropyl)sulfonyl)-2-methylpiperidin-4-yl)benzamide] the value was over 10 µM; for `C[C@H]1C[C@@H](NC(=O)c2ccccc2)CCN1C(=O)C1CCC(N)CC1` (mixture of isomers) [compound 567, (±)-cis-N-(1-(4-aminocyclohexane-1-carbonyl)-2-methylpiperidin-4-yl)benzamide], over 10 µM. On to `CCc1cccc(C(=O)N[C@@H]2CCN(S(=O)(=O)CCCN)[C@H](C)C2)c1` (racemic) [compound 569, (±)-cis-N-(1-((3-aminopropyl)sulfonyl)-2-methylpiperidin-4-yl)-3-ethylbenzamide], for which the IC50 under setting [1] was 8.02 µM. Consider `C[C@H]1C[C@H](NC(=O)c2ccccc2)CCN1C(=O)C1CCC(N)CC1` (mixture of isomers) [compound 571, (±)-trans-N-(1-(4-aminocyclohexane-1-carbonyl)-2-methylpiperidin-4-yl)benzamide], for which the IC50 under setting [1] was over 10 µM. `CCc1cccc(C(=O)N[C@H]2CCN(S(=O)(=O)CCCN)[C@H](C)C2)c1` (racemic) [compound 573, (±)-trans-N-(1-((3-aminopropyl)sulfonyl)-2-methylpiperidin-4-yl)-3-ethylbenzamide]: the IC50 under setting [1] is over 10 µM.

For the compound `C[C@@H]1C[C@H](NC(=O)c2ccccc2)CCN1S(=O)(=O)CCCN` (stereo in doubt) [compound 564, (±)-cis-N-(1-((3-aminopropyl)sulfonyl)-2-methylpiperidin-4-yl)benzamide], the IC50 under setting [1] is over 10 µM.

With `C[C@H]1C[C@@H](NC(=O)c2ccccc2)CCN1S(=O)(=O)CCCN` (stereo in doubt) [compound 570, (±)-cis-N-(1-((3-aminopropyl)sulfonyl)-2-methylpiperidin-4-yl)benzamide], the IC50 under setting [1] was over 10 µM. Consider `Cc1cc(C(=O)N[C@H]2CC[C@H](N)CC2)n(Cc2ccccc2)n1` [Cpd. No. 29, N-((1r,4r)-4-aminocyclohexyl)-1-benzyl-3-methyl-1H-pyrazole-5-carboxamide Hydrochloride], for which the IC50 under setting [2] was found to be 14 µM. Same read-out and setting: for `CC(NC(=O)c1ccc2c(c1)CC(=O)N2)C1CCN(C(=O)[C@H](C)N)CC1` (stereo partly drawn) [Cpd. No. 86, N-(1-(1-((S)-2-aminopropanoyl)piperidin-4-yl)ethyl)-2-oxoindoline-5-carboxamide Hydrochloride] the value was 1.43 µM; for `CC(NC(=O)c1ccc2[nH]c(=O)[nH]c2c1)C1CCN(C(=O)[C@H](C)N)CC1` (stereo partly drawn) [Cpd. No. 93, N-(1-(1-((S)-2-aminopropanoyl)piperidin-4-yl)ethyl)-2-oxo-2,3-dihydro-1H-benzo[d]imidazole-5-carboxamide], 6.76 µM; for `CC(NC(=O)c1ccc2[nH]c(=O)oc2c1)C1CCN(C(=O)[C@H](C)N)CC1` (stereo partly drawn) [Cpd. No. 94, N-(1-(1-((S)-2-aminopropanoyl)piperidin-4-yl)ethyl)-2-oxo-2,3-dihydrobenzo[d]oxazole-6-carboxamide Hydrochloride], 3.94 µM. The same measure, in the same setting: for `O=C1Cc2cc(C(=O)NCC3CCNCC3)ccc2N1` [Cpd. No. 100, 2-oxo-N-(piperidin-4-ylmethyl)indoline-5-carboxamide Hydrochloride] the value was 20 µM. For `NCCCC(=O)N1CCC(NC(=O)c2ncn[nH]2)CC1` [Cpd. No. 560, N-(1-(4-aminobutanoyl)piperidin-4-yl)-1H-1,2,4-triazole-5-carboxamide], the IC50 under setting [1] was over 10 µM. Turning to `CC(=O)Nc1ccc(S(=O)(=O)N2CCC(NC(=O)c3cccnc3)CC2)cc1` [compound 3, N-(1-((4-acetamidophenyl)sulfonyl)piperidin-4-yl)nicotinamide], under setting [2], the IC50 was over 100 µM. Same read-out and setting: for `CC(=O)Nc1ccc(S(=O)(=O)N2CCC(NC(=O)c3ccncc3)CC2)cc1` [compound 4, N-(1-((4-acetamidophenyl)sulfonyl)piperidin-4-yl)isonicotinamide] the value was over 100 µM. Still for that read-out and setting: for `CC(=O)Nc1ccc(S(=O)(=O)N2CCC(NC(=O)c3cnccn3)CC2)cc1` [compound 5, N-(1-((4-acetamidophenyl)sulfonyl)piperidin-4-yl)pyrazine-2-carboxamide] the value was over 100 µM. The same measure, in the same setting: with `CC(=O)Nc1ccc(S(=O)(=O)N2CCC(NC(=O)c3cc[nH]n3)CC2)cc1` [compound 6, N-(1-((4-acetamidophenyl)sulfonyl)piperidin-4-yl)-1H-pyrazole-3-carboxamide] the figure was over 100 µM. For `CC(=O)Nc1ccc(S(=O)(=O)N2CCC(NC(=O)c3ccnn3C)CC2)cc1` [compound 7, N-(1-((4-acetamidophenyl)sulfonyl)piperidin-4-yl)-1-methyl-1H-pyrazole-5-carboxamide], the IC50 under setting [2] was over 100 µM. On the same count and under the same terms, for `CC(=O)Nc1ccc(S(=O)(=O)N2CCC(NC(=O)c3cnn(C)c3)CC2)cc1` [compound 8, N-(1-((4-acetamidophenyl)sulfonyl)piperidin-4-yl)-1-methyl-1H-pyrazole-4-carboxamide] the value was over 100 µM. In the case of `CC(=O)Nc1ccc(S(=O)(=O)N2CCC(NC(=O)c3cn(C)cn3)CC2)cc1` [compound 9, N-(1-((4-acetamidophenyl)sulfonyl)piperidin-4-yl)-1-methyl-1H-imidazole-4-carboxamide], the IC50 under setting [2] is 60.5 µM. The same measure, in the same setting: for `CC(=O)Nc1ccc(S(=O)(=O)N2CCC(NC(=O)c3cn(C4CC4)nn3)CC2)cc1` [compound 10, N-(1-((4-acetamidophenyl)sulfonyl)piperidin-4-yl)-1-cyclopropyl-1H-1,2,3-triazole-4-carboxamide] the value was 17 µM; for `N[C@H]1CC[C@H](NC(=O)c2cn(C3CC3)nn2)CC1` [compound 11, N-((1r,4r)-4-aminocyclohexyl)-1-cyclopropyl-1H-1,2,3-triazole-4-carboxamide], 15.4 µM; for `CC(=O)Nc1ccc(S(=O)(=O)N2CCC(NC(=O)C3CCN(CC4CC4)CC3)CC2)cc1` [compound 12, N-(1-((4-acetamidophenyl)sulfonyl)piperidin-4-yl)-1-(cyclopropylmethyl)piperidine-4-carboxamide], 45.9 µM. Same read-out and setting: for `CCn1ccc(C(=O)N[C@H]2CC[C@H](N)CC2)n1` [compound 13, N-((1r,4r)-4-aminocyclohexyl)-1-ethyl-1H-pyrazole-3-carboxamide] the value was 112 µM; for `CCc1cc(C(=O)N[C@H]2CC[C@H](N)CC2)on1` [compound 14, N-((1r,4r)-4-aminocyclohexyl)-3-ethylisoxazole-5-carboxamide], 104 µM. On the same count and under the same terms, for `CCn1cnc(C(=O)N[C@H]2CC[C@H](N)CC2)c1` [compound 15, N-((1r,4r)-4-aminocyclohexyl)-1-ethyl-1H-imidazole-4-carboxamide] the value was 56.6 µM; for `CCc1nc(C(=O)N[C@H]2CC[C@H](N)CC2)co1` [compound 16, N-((1r,4r)-4-aminocyclohexyl)-2-ethyloxazole-4-carboxamide], 128 µM.
